Reference: article PMC9688225, “α-Lipoic Acid Derivatives as Allosteric Modulators for Targeting AMPA-Type Glutamate Receptors’ Gating Modules” (Cells, 2022)
Where two headings read alike, the source gives them in different places.

Tests used:
[1] = system: AMPA receptor subunits (GluA1, GluA2, GluA1/2, GluA2/3); assay: Whole-cell patch-clamp electrophysiology, summary over the AMPA receptor subunits in HEK293 cells; type: cell-based
Description: (§1) Up to 20 μg of high-copy plasmid DNA was prepared using the QIAGEN Plasmid Mini Kit, the tubes were then centrifuged to extract the supernatant containing the plasmid DNA, ethanol was used to wash the DNA pellet, then centrifuged again and the supernatant was carefully removed as to not disturb the pellet, finally, the pellet was air-dried, and the DNA was re-dissolved in a suitable volume of buffer, (our prior study detailed the whole DNA preparation data). The flip isoform was used in all AMPAR subunits used in this investigation. AMPAR subunits were subcloned in pRK and expressed in the human embryonic kidney cells (HEK293) (The HEK293 cell line was obtained from Sigma, Schnelldorf, Germany). IPA (Integrated Patch Amplifier) recorded HEK293 cells 36–48 h after transfection using the patch-clamp method (Sutter Instruments, Novato, CA, USA). A high-speed piezo solution switcher was installed on a double-barreled glass (theta tube) to provide solutions fast, isolate receptor responses from any network influences, and preserve, as much as possible, the postsynaptic protein machinery. Thus, inhibition was measured by comparing the current recorded when glutamate alone was administered to the current observed when glutamate plus the compound of interest was delivered to the same cell. Before administering the α-LA compounds, experiments were conducted to determine the appropriate concentration to be delivered to the cells without harming them. Dichloromethane (12 µM) effect on GluA1 and GluA2 subunits was tested to ensure that it had no effect on AMPA receptor currents (Figure S8). The effect of α-LA compounds on AMPA subunits plateaued at a concentration of 12 µM because LA inhibits AMPA receptors at low concentrations and continues to inhibit them when LA concentrations are increased by 2 µM each interval, as shown in Figure S1. The concentration increased by 2 µM each time to ensure that no cells were harmed. The cells were washed for 20 s between α-LA derivatives (12 µM), and 10 mM glutamate was supplied alone after each α-LA compound to ensure cell health. Data analysis was carried out using Igor Pro7 (Wave Metrics, inc). For both desensitization (τw des) and deactivation rates (τw deact), an exponential fit to the current decline was obtained at 95% of peak to baseline current. The weighted tau (τw) was calculated as τw = (τf × af) + (τs × as), where af and as are the amplitudes of the fast (τf) and slow (τs) exponential components, respectively. Our study detailed the experimental data set.
(§2) Data are presented as mean ± standard error of the mean (SEM). The number of samples (n = 10) refers to the total number of tested HEK293 cells. Statistical differences between the groups and the wild type were examined by One Way Analysis of Variance (ANOVA), with values of p < 0.05 being considered to indicate statistical significance: (*) p < 0.05, (**) p < 0.01, (***) p < 0.001, ns, not significant. Concentration-response relationships were fitted as composite curves using GraphPad Prism version 6.01 (GraphPad Software, San Diego, CA, USA) to the Hill equation. All results were representative of at least three independent experiments.
The levels of inhibition of α-LA and its derivatives attracted our attention to assessing the potency of the compounds in a concentration-dependent manner. […] The concentration−inhibition curves were produced by administering glutamate alone at a concentration of 10 mM, followed by glutamate + α-LA derivatives at varying concentrations (in μM) for every recording point. Afterward, the cells were normalized back by administering glutamate alone. Since the glutamate concentration in the synaptic cleft constantly saturates the receptors, driving the response to a near maximum level, variability occurs because the maximum level changes. […]

[2] = biological target: T1, GluA2/3 AMPA receptor subunits (flip isoform) (Homo sapiens, UniProt P42262+P42263); assay: Whole-cell patch-clamp electrophysiology, heteromeric GluA2/3 expressed in HEK293 cells; type: cell-based; details: for Amplitude (glutamate + compound): 10 mM glutamate + 12 µM compound, −60 mV, pH 7.4, 22 °C, mean ± SEM; for Amplitude (glutamate + compound) / A/AI (current with glutamate alone / current with glutamate + compound): n = 10; for A/AI (current with glutamate alone / current with glutamate + compound): 10 mM glutamate, 12 µM compound; for IC50: Hill fit; for t deact (weighted deactivation time constant) / t des (weighted desensitization time constant): glutamate + 12 µM compound; for t deact (weighted deactivation time constant): glutamate alone 2.4±0.3 ms; for t des (weighted desensitization time constant): glutamate alone 2.7±0.3 ms
T1 construct: expressed in transfected cells; host or cells: HEK293
Description: as §1, §2
(§3) Figure 2 Suppression of AMPA receptor currents by α-LA compounds. Graphs (a,c,e,g) present AMPA receptor currents (pA) before and after the administration of α-LA derivatives on GluA1, GluA1/2, GluA2, and GluA2/3 subunits. While (b,d,f,h) present the ratio A/AI, where A represents the current caused by 10 mM glutamate alone and AI represents the current induced by glutamate + α-LA (12 µM). The whole-cell current was measured at −60 mV, pH 7.4, and 22 °C. A one way analysis of variance (ANOVA) was performed for comparison: *** p < 0.001; ns, not significant. Ten cells were investigated for each LA compound. All values are shown as mean SEM.
(§4) Figure 3 The potency of LA compounds against AMPA receptor subunits. […]

[3] = biological target: T2, GluA1 AMPA receptor subunit (flip isoform) (Homo sapiens, UniProt P42261); assay: Whole-cell patch-clamp electrophysiology, homomeric GluA1 expressed in HEK293 cells; type: cell-based; details: for Amplitude (glutamate + compound): 10 mM glutamate + 12 µM compound, −60 mV, pH 7.4, 22 °C, mean ± SEM; for Amplitude (glutamate + compound) / A/AI (current with glutamate alone / current with glutamate + compound): n = 10; for A/AI (current with glutamate alone / current with glutamate + compound): 10 mM glutamate, 12 µM compound; for IC50: Hill fit; for t deact (weighted deactivation time constant) / t des (weighted desensitization time constant): glutamate + 12 µM compound; for t deact (weighted deactivation time constant): glutamate alone 2.2±0.1 ms; for t des (weighted desensitization time constant): glutamate alone 2.3±0.1 ms
T2 construct: expressed in transfected cells; host or cells: HEK293
Description: as §1, §2, §3, §4

[4] = biological target: T3, GluA2 AMPA receptor subunit (flip isoform) (Homo sapiens, UniProt P42262); assay: Whole-cell patch-clamp electrophysiology, homomeric GluA2 expressed in HEK293 cells; type: cell-based; details: for Amplitude (glutamate + compound): 10 mM glutamate + 12 µM compound, −60 mV, pH 7.4, 22 °C, mean ± SEM; for Amplitude (glutamate + compound) / A/AI (current with glutamate alone / current with glutamate + compound): n = 10; for A/AI (current with glutamate alone / current with glutamate + compound): 10 mM glutamate, 12 µM compound; for IC50: Hill fit; for t deact (weighted deactivation time constant) / t des (weighted desensitization time constant): glutamate + 12 µM compound; for t deact (weighted deactivation time constant): glutamate alone 2.4±0.1 ms; for t des (weighted desensitization time constant): glutamate alone 2.6±0.1 ms
T3 construct: expressed in transfected cells; host or cells: HEK293
Description: as §1, §2, §3, §4

[5] = biological target: T4, GluA1/2 AMPA receptor subunits (flip isoform) (Homo sapiens, UniProt P42261+P42262); assay: Whole-cell patch-clamp electrophysiology, heteromeric GluA1/2 expressed in HEK293 cells; type: cell-based; details: for Amplitude (glutamate + compound): 10 mM glutamate + 12 µM compound, −60 mV, pH 7.4, 22 °C, mean ± SEM; for Amplitude (glutamate + compound) / A/AI (current with glutamate alone / current with glutamate + compound): n = 10; for A/AI (current with glutamate alone / current with glutamate + compound): 10 mM glutamate, 12 µM compound; for IC50: Hill fit; for t deact (weighted deactivation time constant) / t des (weighted desensitization time constant): glutamate + 12 µM compound; for t deact (weighted deactivation time constant): glutamate alone 2.5±0.3 ms; for t des (weighted desensitization time constant): glutamate alone 5.3±0.4 ms
T4 construct: expressed in transfected cells; host or cells: HEK293
Description: as §1, §2, §3, §4

HEK293 cells = system: HEK293 cells; set-up: method as in PMID 23780308; details: 8 µM α-lipoic acid; cited from earlier work
[6] = system: EA.hy926 endothelial cells; set-up: method as in PMID 18026819; details: 40–80 µM α-lipoic acid; cited from earlier work
[7] = all AMPA receptor subunits, 12 µM compound
[8] = whole-cell normalized peak amplitude, unit printed in the text, not in Table S6, read-out: IC50

T2 sequence (P42261 19-906 isoform P42261-2 limits assumed): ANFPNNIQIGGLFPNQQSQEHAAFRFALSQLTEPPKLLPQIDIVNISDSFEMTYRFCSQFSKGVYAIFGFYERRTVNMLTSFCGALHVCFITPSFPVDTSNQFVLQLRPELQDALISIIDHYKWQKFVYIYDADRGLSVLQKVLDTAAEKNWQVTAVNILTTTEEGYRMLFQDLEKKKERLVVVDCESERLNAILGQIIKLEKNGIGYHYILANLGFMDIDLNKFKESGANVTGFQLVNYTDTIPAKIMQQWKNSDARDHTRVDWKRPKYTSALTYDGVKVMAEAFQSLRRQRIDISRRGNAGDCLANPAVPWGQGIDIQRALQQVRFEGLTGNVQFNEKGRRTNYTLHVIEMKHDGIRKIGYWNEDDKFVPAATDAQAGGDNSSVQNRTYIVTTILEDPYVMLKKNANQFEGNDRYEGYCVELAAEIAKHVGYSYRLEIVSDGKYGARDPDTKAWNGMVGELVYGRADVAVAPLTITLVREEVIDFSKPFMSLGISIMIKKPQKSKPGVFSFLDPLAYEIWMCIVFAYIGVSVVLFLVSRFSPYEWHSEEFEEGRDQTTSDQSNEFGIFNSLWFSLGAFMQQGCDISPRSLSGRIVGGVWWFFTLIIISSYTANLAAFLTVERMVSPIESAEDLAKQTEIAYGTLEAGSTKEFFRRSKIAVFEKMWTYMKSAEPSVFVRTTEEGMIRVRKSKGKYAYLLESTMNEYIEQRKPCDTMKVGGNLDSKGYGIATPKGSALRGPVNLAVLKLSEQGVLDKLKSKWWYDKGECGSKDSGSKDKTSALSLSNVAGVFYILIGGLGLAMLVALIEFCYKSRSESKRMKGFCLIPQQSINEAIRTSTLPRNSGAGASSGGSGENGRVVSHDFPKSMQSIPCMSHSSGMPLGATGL
T4 sequence (P42261 19-906 isoform P42261-2 limits assumed): as above
T4 sequence (P42262 25-883 isoform P42262-2 limits assumed): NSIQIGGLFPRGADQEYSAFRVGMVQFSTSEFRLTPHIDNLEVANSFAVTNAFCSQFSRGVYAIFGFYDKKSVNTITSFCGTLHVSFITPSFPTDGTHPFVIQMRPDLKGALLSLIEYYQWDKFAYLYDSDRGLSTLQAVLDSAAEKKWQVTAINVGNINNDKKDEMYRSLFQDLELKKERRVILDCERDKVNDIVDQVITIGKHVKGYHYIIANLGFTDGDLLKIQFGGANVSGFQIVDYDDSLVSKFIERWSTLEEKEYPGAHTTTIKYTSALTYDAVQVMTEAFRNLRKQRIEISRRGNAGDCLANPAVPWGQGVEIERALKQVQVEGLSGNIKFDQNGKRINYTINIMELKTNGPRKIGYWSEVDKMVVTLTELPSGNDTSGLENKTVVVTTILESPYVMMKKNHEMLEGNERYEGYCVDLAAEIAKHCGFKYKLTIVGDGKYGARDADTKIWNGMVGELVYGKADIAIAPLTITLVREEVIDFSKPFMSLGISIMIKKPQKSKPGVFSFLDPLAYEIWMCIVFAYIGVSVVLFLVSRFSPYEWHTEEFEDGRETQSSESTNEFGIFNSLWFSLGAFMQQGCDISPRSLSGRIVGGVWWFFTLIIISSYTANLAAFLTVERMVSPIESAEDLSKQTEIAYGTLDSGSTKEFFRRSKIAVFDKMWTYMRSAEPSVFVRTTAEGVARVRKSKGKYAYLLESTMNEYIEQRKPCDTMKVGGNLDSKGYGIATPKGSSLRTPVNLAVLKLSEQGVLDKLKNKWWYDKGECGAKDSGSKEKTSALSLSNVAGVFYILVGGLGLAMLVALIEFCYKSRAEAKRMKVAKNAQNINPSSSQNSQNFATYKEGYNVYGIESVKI
T3 sequence (P42262 25-883 isoform P42262-2 limits assumed): as above
T1 sequence (P42262 25-883 isoform P42262-2 limits assumed): as above
T1 sequence (P42263 29-894 isoform P42263-2 limits assumed): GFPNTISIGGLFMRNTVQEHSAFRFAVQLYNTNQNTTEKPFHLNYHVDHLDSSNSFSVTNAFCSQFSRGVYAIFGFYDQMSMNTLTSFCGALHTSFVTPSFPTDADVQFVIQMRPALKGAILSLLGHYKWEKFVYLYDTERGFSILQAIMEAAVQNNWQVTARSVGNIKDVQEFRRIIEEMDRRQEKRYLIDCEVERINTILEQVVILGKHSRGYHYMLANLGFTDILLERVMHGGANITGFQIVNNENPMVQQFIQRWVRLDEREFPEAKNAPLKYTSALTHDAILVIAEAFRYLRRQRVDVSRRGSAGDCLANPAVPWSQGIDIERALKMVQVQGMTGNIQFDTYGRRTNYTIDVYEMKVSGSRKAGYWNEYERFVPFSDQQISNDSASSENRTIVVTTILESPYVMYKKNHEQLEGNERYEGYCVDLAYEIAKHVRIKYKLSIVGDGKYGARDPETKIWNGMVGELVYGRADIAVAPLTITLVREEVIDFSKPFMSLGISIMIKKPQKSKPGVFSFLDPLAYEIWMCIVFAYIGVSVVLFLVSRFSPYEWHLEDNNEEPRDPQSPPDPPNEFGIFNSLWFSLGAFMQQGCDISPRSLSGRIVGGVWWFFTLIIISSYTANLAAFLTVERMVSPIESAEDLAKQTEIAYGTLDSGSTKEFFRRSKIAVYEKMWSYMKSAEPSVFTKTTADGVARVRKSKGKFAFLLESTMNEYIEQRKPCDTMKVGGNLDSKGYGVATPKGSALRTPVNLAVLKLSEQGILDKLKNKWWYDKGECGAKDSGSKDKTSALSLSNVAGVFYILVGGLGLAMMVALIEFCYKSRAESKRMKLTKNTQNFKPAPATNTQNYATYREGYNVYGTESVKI

O=C(CCCCC1CCSS1)OCCCCCCO (centres unmarked) [LA4, 1-Hydroxy-6-Lipoester]
decrease in the peak current of the AMPARs [1, 7]: roughly 8 fold
increase of the rate of AMPA receptor deactivation (τw deact) [1, 7]: roughly 3 fold
Amplitude (glutamate + compound) [2]: 72±15.0 pA
A/AI (current with glutamate alone / current with glutamate + compound) [2]: 7.58±0.7
IC50 ([2]; read-out: Log IC50 (converted)): 4.79 µM
t deact (weighted deactivation time constant) [2]: 6.9 ± 0.5 ms
t des (weighted desensitization time constant) [2]: 2.0 ± 0.1 ms
IC50 [2, 8]: 4.76 µM
Amplitude (glutamate + compound) [3]: 121±18 pA
A/AI (current with glutamate alone / current with glutamate + compound) [3]: 7.79±0.5
IC50 ([3]; read-out: Log IC50 (converted)): 4.17 µM
t deact (weighted deactivation time constant) [3]: 7.5 ± 0.3 ms
t des (weighted desensitization time constant) [3]: 1.8 ± 0.1 ms
IC50 [3, 8]: 4.18 µM
Amplitude (glutamate + compound) [4]: 166±28 pA
A/AI (current with glutamate alone / current with glutamate + compound) [4]: 7.65±0.5
IC50 ([4]; read-out: Log IC50 (converted)): 4.47 µM
t deact (weighted deactivation time constant) [4]: 7.1 ± 0.4 ms
t des (weighted desensitization time constant) [4]: 1.9 ± 0.07 ms
IC50 [4, 8]: 4.47 µM
Amplitude (glutamate + compound) [5]: 87±13.0 pA
A/AI (current with glutamate alone / current with glutamate + compound) [5]: 7.70±0.7
IC50 ([5]; read-out: Log IC50 (converted)): 4.37 µM
t deact (weighted deactivation time constant) [5]: 7.4 ± 0.4 ms
t des (weighted desensitization time constant) [5]: 3.7 ± 0.3 ms
IC50 [5, 8]: 4.41 µM

O=C(O)CCCCC1CCSS1 (stereo not drawn) [α-LA, alpha-Lipoic acid, reference compound]
harm to the cells (HEK293 cells): without noticing any harm
increase of the rate of AMPA receptor deactivation (τw deact) [1, 7]: about 4 fold
reduction in the rate of desensitization (τw des) [1, 7]: 2 fold
increase of the ratio A/AI ([1]; all AMPA receptor subunits, glutamate alone vs glutamate + compound): 9 fold
IC50 ([1]; over GluA1, GluA1/2, GluA2, GluA2/3, read-out: approximate IC50 against AMPA receptor subunits): 3.5 to 4 µM
toxicity to the cells [6]: without causing toxicity
Amplitude (glutamate + compound) [2]: 60±11.0 pA
A/AI (current with glutamate alone / current with glutamate + compound) [2]: 8.93±1.0
IC50 ([2]; read-out: Log IC50 (converted)): 3.98 µM
t deact (weighted deactivation time constant) [2]: 8.6 ± 0.7 ms
t des (weighted desensitization time constant) [2]: 1.6 ± 0.09 ms
IC50 [2, 8]: 4.01 µM
Amplitude (glutamate + compound) [3]: 102±14.0 pA
A/AI (current with glutamate alone / current with glutamate + compound) [3]: 9.26±0.6
IC50 ([3]; read-out: Log IC50 (converted)): 3.55 µM
t deact (weighted deactivation time constant) [3]: 9.1 ± 0.6 ms
t des (weighted desensitization time constant) [3]: 1.3 ± 0.1 ms
IC50 [3, 8]: 3.54 µM
Amplitude (glutamate + compound) [4]: 136±22 pA
A/AI (current with glutamate alone / current with glutamate + compound) [4]: 9.09±0.8
IC50 ([4]; read-out: Log IC50 (converted)): 3.89 µM
t deact (weighted deactivation time constant) [4]: 8.8 ± 0.5 ms
t des (weighted desensitization time constant) [4]: 1.5 ± 0.04 ms
IC50 [4, 8]: 3.93 µM
Amplitude (glutamate + compound) [5]: 69±10.0 pA
A/AI (current with glutamate alone / current with glutamate + compound) [5]: 9.13±0.9
IC50 ([5]; read-out: Log IC50 (converted)): 3.89 µM
t deact (weighted deactivation time constant) [5]: 8.9 ± 0.5 ms
t des (weighted desensitization time constant) [5]: 3.3 ± 0.3 ms
IC50 [5, 8]: 3.86 µM
